Measured values from PubChem BioAssay (NCI).
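Each compound was tested at five concentrations against cells in 96-well plates for 48 hours. TGI: total growth inhibition.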

What was measured:
Assay in all cases: NCI-60 cell line screen, 48 h
[1] = system: K-562 leukemia
[2] = system: SW-620 colon
[3] = system: U251 CNS
[4] = system: SK-OV-3 ovarian
[5] = system: BT-549 breast
[6] = system: KM12 colon
[7] = system: SK-MEL-5 melanoma
[8] = system: NCI/ADR-RES ovarian
[9] = system: NCI-H226 lung
[10] = system: M14 melanoma
[11] = system: HCT-15 colon
[12] = system: CAKI-1 renal
[13] = system: SNB-19 CNS
[14] = system: HOP-92 NSCLC
[15] = system: A549 NSCLC
[16] = system: SF-295 CNS
[17] = system: HCT-116 colon
[18] = system: DU-145 prostate
[19] = system: MOLT-4 leukemia
[20] = system: HCC-2998 colon
[21] = system: SK-MEL-28 melanoma
[22] = system: IGROV1 ovarian
[23] = system: OVCAR-4 ovarian
[24] = system: MALME-3M melanoma
[25] = system: HS 578T breast
[26] = system: NCI-H460 lung
[27] = system: NCI-H23 lung
[28] = system: MDA-N
[29] = system: EKVX NSCLC
[30] = system: COLO 205 colon
[31] = system: RXF 393 renal
[32] = system: PC-3 prostate
[33] = system: UACC-257 melanoma
[34] = system: SK-MEL-2 melanoma
[35] = system: UO-31 renal
[36] = system: SF-539 CNS
[37] = system: SN12C renal
[38] = system: MDA-MB-435
[39] = system: RPMI-8226 leukemia
[40] = system: NCI-H522 lung
[41] = system: MCF7 breast
[42] = system: A498 renal
[43] = system: HOP-62 NSCLC
[44] = system: UACC-62 melanoma
[45] = system: SF-268 CNS
[46] = system: SNB-75 CNS
[47] = system: TK-10 renal
[48] = system: 786-0 renal
[49] = system: OVCAR-8 ovarian
[50] = system: MDA-MB-231 breast
[51] = system: LOX IMVI melanoma
[52] = system: ACHN renal
[53] = system: OVCAR-3 ovarian
[54] = system: HT29 colon
[55] = system: OVCAR-5 ovarian

Compound `CCOC(=O)c1cn2c(n1)sc1cc(OC)ccc12` has a TGI [1] greater than 100 µM, a TGI [2] greater than 100 µM and a TGI [3] of 21.9 µM. For the same compound, the TGI [4] was greater than 100 µM, the TGI [5] was greater than 100 µM and the TGI [6] was greater than 100 µM. It also gave a TGI [7] greater than 44.3 µM, a TGI [8] greater than 87.3 µM and a TGI [9] of 98.2 µM. For the same compound, the TGI [10] was greater than 100 µM, the TGI [11] was greater than 55.3 µM and the TGI [12] was greater than 100 µM. It also gave a TGI [13] greater than 100 µM, a TGI [14] greater than 100 µM and a TGI [15] greater than 100 µM. It also gave a TGI [16] greater than 65.5 µM, a TGI [17] greater than 43.9 µM and a TGI [18] of 24.6 µM. For the same compound, the TGI [19] was greater than 100 µM, the TGI [20] was greater than 100 µM and the TGI [21] was greater than 100 µM. It also gave a TGI [22] greater than 100 µM, a TGI [23] greater than 100 µM and a TGI [24] greater than 100 µM. The TGI [25] was 81.2 µM, the TGI [26] was greater than 100 µM and the TGI [27] was greater than 100 µM. The TGI [28] was greater than 22.6 µM, the TGI [29] was greater than 100 µM and the TGI [30] was greater than 27.5 µM. The TGI [31] was 64.1 µM, the TGI [32] was greater than 100 µM and the TGI [33] was greater than 100 µM. It also gave a TGI [34] greater than 100 µM, a TGI [35] greater than 100 µM and a TGI [36] greater than 100 µM. The TGI [37] was greater than 100 µM, the TGI [38] was 3.48 µM and the TGI [39] was greater than 100 µM. For the same compound, the TGI [40] was greater than 100 µM, the TGI [41] was greater than 100 µM and the TGI [42] was greater than 100 µM. It also gave a TGI [43] greater than 100 µM, a TGI [44] greater than 100 µM and a TGI [45] greater than 100 µM. It also gave a TGI [46] greater than 100 µM, a TGI [47] greater than 100 µM and a TGI [48] greater than 100 µM. The TGI [49] was greater than 100 µM, the TGI [50] was greater than 100 µM and the TGI [51] was greater than 100 µM. For the same compound, the TGI [52] was greater than 100 µM, the TGI [53] was greater than 44.8 µM and the TGI [54] was 20.2 µM. It also gave a TGI [55] greater than 100 µM.
